Patent US6750256B1, “Use of aromatic aldehydes as insecticides” (Proguard, Inc., priority 1994, dated 2004)

What was measured:
[1] = system: hard ticks (Ixodea pacificus and Dermacentor albipietus); experiment: Tick treated filter paper test, hard ticks; assay type: in vivo
Description: (§1) In a double blind experiment, filter papers (90 mm) (Whatman) were treated to uniform saturation with 1 ml of test formula and placed in 90 mm petri dishes. Ten arachnids were placed in each petri dish and the dish closed. Observations of mortality were made at 30 minutes, 1 hour, 3 hours, 6 hours, 12 hours and 24 hours. The cinnamic aldehyde concentrations varied from 10-50,000 ppm in a vehicle of 2% Tween 80, 6% NaHCO3. The effect of vehicle alone or H2O (HPLC) was also tested. In separate experiments, the effects of the components of the vehicle were evaluated in comparison to water.

[2] = system: soft tick (Ornithodoros coriaceus); experiment: Tick treated filter paper test, soft ticks; assay type: in vivo
Description: as §1, with “Observations of mortality were made at 30 minutes, 1 hour, 3 hours, 6 hours, 12 hours and 24 hours.” left out

[3] = system: Adult male cockroaches (Dictyoptera; Blattelidae); experiment: German cockroach topical application bioassay; assay type: in vivo, German cockroaches; details: 2% (20,000 ppm) in aqueous vehicle (2% Tween 80, 6% NaHCO3); 5 ml spray; within five minutes
Description: Adult male cockroaches (Dictyoptera; Blattelidae) were used to evaluate insecticidal activity of cinnamic aldehyde and/or coniferyl aldehyde by a topical application method.
Twenty cockroaches were placed in stainless steel pails (20 liter) with lids. After one week provisioned with food, water and harborage, they were sprayed with 5 ml of a test formulation at arm's length (approximately 1 meter) using a Gilmour spray bottle. The number of dead or moribund cockroaches at 5 minutes, 30 minutes, 1 hour and 12 hours after treatment was counted and compared to those untreated (diluent only). Raid (active ingredients: permethrin, pyrethrins and PBO) was used as a positive control. Within five minutes, all cockroaches treated with 2% cinnamic aldehyde (20,000 ppm) in aqueous vehicle (2% Tween 80, 6% NaHCO3) were dead, as were all those treated with Raid. Ten percent of those treated with vehicle alone were dead in 30 minutes, with no further increase in mortality up to 12 hours.

[4] = system: adult carpenter ants (Camponotus pennsylvanicus); experiment: Carpenter ant spray test; assay type: in vivo
Description: The effect of cinnamic aldehyde on adult carpenter ants (Camponotus pennsylvanicus) was evaluated as follows. Twenty adult ants were placed in a 20 liter stainless steel pail with lid. The test formulations were prepared and used within one hour and were shaken immediately before spraying the insects. 8 ml of test solution was sprayed with a fine spray (Gilmour hand sprayer). […] Cinnamic aldehyde (2%, 20,000 ppm) in 2% Tween 80 and 6% NaHCO3 in water gave 100% mortality at all time points. Vehicle in 2% Tween 80 and 6% NaHCO3. Raid (active ingredients: permethrin, pyrethrins and PBO) was used as a positive control and gave 90% mortality at 0.5 hr with 100% mortality at all other time points.

[5] = system: adult Aedes aegypti mosquitos; experiment: Mosquito adulticide treated filter paper test; assay type: in vivo
Description: The toxicity of the formulation for mosquitos was determined using adult Aedes aegypti mosquitos from the University of California Mosquito Control Research Laboratory at the Kearney Agricultural Center. The experiments were performed as double blind studies.
One ml test formulation was pipetted onto 11 cm #2 Whatman filter paper circle cut to fit shell vials (84 mm×23 mm) which was air dried at room temperature for two hours and placed in a shell vial (84 mm×23 mm). Twenty unblooded adult female mosquitos approximately four days of age were aspirated using gentle suction into each shell vial. The open end of the vial was covered with 1 mm nylon mesh and filter paper cut to fit for complete coverage from an 11 cm #2 Whatman filter paper circle. The vials were placed in a polyethylene mosquito bag (46 cm×20 cm) with a wet paper towel inside and loosely sealed. The bag was gently inflated by gently blowing in air and placed in an incubator at 22° C. for 24 hours with a day light cycle (14 hrs light; 10 hrs dark). Untreated paper and paper treated with H2O were used as controls. Mortality was determined by counting the number of dead mosquitos.
The efficacy of various concentrations of cinnamic aldehyde in a formulation of 2% Tween 80, 6% NaHCO3 was tested, using concentrations of cinnamic aldehyde ranging from 25,000 ppm to 10 ppm with and without the addition of saponin, 1:60 dilution of a 10° Brix solution. At concentrations down to 100 ppm added to the filter paper, 100% of the mosquitos were killed. At 10 ppm added to the filer paper, 78% of the mosquitos were killed in the absence of saponin, but only 5% with saponin 14% of mosquitos were killed with the addition of 2% Tween 80 and 6% NaHCO3 alone to the filter paper and 50% with the further addition of a 1:60 dilution 10° Brix saponin. The percent mortality is the average of three replications, with corrections for control mortality. Malathion was used as a positive control.

melon aphids = experiment: Melon aphid whole plant spray with cinnamaldehyde and saponin; assay type: in vivo, Aphis gossypii Glover; details: whole plant sprayed to drip
Description: Whole nonflowering potted chrysanthemum plants were used to assay melon aphids. Two plants were treated for each treatment and two leaves, one from the top of the plant and one from the bottom of the plant, were sampled to determine the number of living and dead melon aphids. Three treatments were applied: 1.0% CNMA plus 0.5% saponin, 0.5% CNMA plus 0.25% saponin, and 0.5% saponin only. The whole plants were sprayed to “drip” on both the top and bottom sides of leaves. Results are presented as the proportion of aphids found dead. Results were as follows: control plant (0.5% saponin only) 14.8% ±4.5; 0.5% CNMA 48.3±16.1; 1.0% CNMA 72.0±11.2.

[6] = 10 ppm in 2% Tween 80 and 6% NaHCO3
[7] = 100 ppm in 2% Tween 80 and 6% NaHCO3
[8] = 2,500 ppm in 2% Tween 80 and 6% NaHCO3
[9] = 5,000 ppm in 2% Tween 80 and 6% NaHCO3
[10] = 12,500 ppm in 2% Tween 80 and 6% NaHCO3
[11] = 25,000 ppm in 2% Tween 80 and 6% NaHCO3
[12] = 24 h, read-out: Percent Mortality CNMA (PGXL)

## O=C/C=C/c1ccccc1 [CNMA, cinnamic aldehyde]
[1]; 2500 ppm in vehicle (2% Tween 80, 6% NaHCO3), in 24 hours, preliminary experiments
  mortality: 100%
[1]; concentrations below 2500 in vehicle
  effect on mortality: no effect on mortality
[2]; [6]
  Number Dead 24 Hours (#/30): 0 #/30
  Number Dead 120 Hours (#/30): 0 #/30
[2]; [7]
  Number Dead 24 Hours (#/30): 0 #/30
  Number Dead 120 Hours (#/30): 0 #/30
[2]; [8]
  Number Dead 24 Hours (#/30): 2/30
  Number Dead 120 Hours (#/30): 6/30
[2]; [9]
  Number Dead 24 Hours (#/30): 3/30
  Number Dead 120 Hours (#/30): 6/30
[2]; [10]
  Number Dead 24 Hours (#/30): 5/30
  Number Dead 120 Hours (#/10): 10/10
  Number Dead 120 Hours (#/30): 6/30
[2]; [11]
  Number Dead 24 Hours (#/30): 7/30
  Number Dead 120 Hours (#/10): 10/10
  Number Dead 120 Hours (#/30): 21/30
[2]; 30,000 ppm in 2% Tween 80 and 6% NaHCO3
  Number Dead 120 Hours (#/10): 10/10
[2]; 35,000 ppm in 2% Tween 80 and 6% NaHCO3
  Number Dead 120 Hours (#/10): 10/10
[2]; 40,000 ppm in 2% Tween 80 and 6% NaHCO3
  Number Dead 120 Hours (#/10): 10/10
[2]; 45,000 ppm in 2% Tween 80 and 6% NaHCO3
  Number Dead 120 Hours (#/10): 10/10
[2]; 50,000 ppm in 2% Tween 80 and 6% NaHCO3
  Number Dead 120 Hours (#/10): 10/10
[2]; Ornithodoros coriaceus
  mortality at 12500 ppm: 100%
[3]
  cockroaches dead: all
[4]
  mortality at 20000 ppm: 100%
[5]; 10 ppm added to the filter paper, in the absence of saponin
  mosquitos killed: 78%
[5]; 10 ppm added to the filter paper, with saponin
  mosquitos killed: 5%
[5]; [12]
  mortality at 10 ppm: 78%
  mortality at 100 ppm: 100%
  mortality at 2500 ppm: 95%
  mortality at 5000 ppm: 100%
  mortality at 12500 ppm: 100%
  mortality at 25000 ppm: 100%
[5]; concentrations down to 100 ppm added to the filter paper
  mosquitos killed: 100%
Melon aphids; 0.5% CNMA plus […] saponin
  proportion of aphids found dead: 48.3±16.1%
Melon aphids; 1.0% CNMA plus 0.5% saponin
  proportion of aphids found dead: 72.0±11.2%
